Our source for the Ratio IC50 and IC50 values is ChEMBL document CHEMBL1914376, “Synthesis and in vitro evaluation of 7-methoxy-N-(pent-4-enyl)-1,2,3,4-tetrahydroacridin-9-amine-new tacrine derivate with cholinergic properties” (Bioorg Med Chem Lett, 2011).

Test [1] has as its target T1, Acetylcholinesterase (Homo sapiens, UniProt P22303). Put plainly: Ratio of Tacrine IC50 to compound IC50 for human recombinant AChE.
For test [2], the target named is T1, Acetylcholinesterase. As to the kind of experiment: Ratio of 7-MEOTA IC50 to compound IC50 for human recombinant AChE.
Test [3] concerns the target T1, Acetylcholinesterase.
Description: Inhibition of human recombinant AChE after 5 mins using spectrophotometer by Ellman's method
The next test deals with Cholinesterase (Homo sapiens, UniProt P06276).
Sequence of Cholinesterase (P06276 whole entry): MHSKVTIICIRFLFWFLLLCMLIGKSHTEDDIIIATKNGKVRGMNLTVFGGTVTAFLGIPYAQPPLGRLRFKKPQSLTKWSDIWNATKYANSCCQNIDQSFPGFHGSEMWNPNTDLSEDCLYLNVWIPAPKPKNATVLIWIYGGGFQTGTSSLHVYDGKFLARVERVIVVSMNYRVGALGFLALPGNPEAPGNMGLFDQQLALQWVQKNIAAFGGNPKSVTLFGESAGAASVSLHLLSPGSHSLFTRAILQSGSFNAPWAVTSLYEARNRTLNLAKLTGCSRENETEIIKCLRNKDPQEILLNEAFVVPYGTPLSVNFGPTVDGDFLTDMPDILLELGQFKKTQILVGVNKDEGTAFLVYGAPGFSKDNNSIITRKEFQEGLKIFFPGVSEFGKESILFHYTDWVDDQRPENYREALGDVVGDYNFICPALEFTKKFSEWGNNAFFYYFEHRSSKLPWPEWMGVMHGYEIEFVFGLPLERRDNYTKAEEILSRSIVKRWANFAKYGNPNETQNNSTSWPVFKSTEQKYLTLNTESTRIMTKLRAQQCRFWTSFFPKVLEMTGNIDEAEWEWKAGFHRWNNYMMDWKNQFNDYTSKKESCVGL

T1 sequence (P22303 whole entry): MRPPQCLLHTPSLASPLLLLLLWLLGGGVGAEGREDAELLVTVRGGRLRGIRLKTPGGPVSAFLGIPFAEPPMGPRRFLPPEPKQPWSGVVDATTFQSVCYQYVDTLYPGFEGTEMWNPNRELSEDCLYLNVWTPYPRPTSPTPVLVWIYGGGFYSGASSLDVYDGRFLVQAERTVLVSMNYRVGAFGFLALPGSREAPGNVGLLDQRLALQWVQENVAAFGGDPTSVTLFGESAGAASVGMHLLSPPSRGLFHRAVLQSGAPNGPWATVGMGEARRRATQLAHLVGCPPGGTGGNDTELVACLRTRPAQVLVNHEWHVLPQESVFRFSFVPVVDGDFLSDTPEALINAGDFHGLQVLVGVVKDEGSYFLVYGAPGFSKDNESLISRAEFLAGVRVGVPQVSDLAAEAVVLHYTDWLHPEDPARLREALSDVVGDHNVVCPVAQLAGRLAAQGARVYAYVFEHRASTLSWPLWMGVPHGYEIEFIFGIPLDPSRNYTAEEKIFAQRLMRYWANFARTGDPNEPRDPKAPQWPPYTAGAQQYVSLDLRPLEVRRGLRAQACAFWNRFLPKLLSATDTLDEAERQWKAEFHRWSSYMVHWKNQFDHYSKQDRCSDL

For the compound `C=CCCCNc1c2c(nc3ccc(OC)cc13)CCCC2`, the figures for the Ratio IC50 at Acetylcholinesterase [1] and on Acetylcholinesterase [2] were 10 and 5, respectively. In addition, the IC50 against Acetylcholinesterase [3] was determined as 2.2 µM; against Cholinesterase, 1.1 µM.

Consider `COc1ccc2nc3c(c(N4CCCCCN(c5c6c(nc7ccc(OC)cc57)CCCC6)CCCCC4)c2c1)CCCC3`, for which the IC50 on Acetylcholinesterase [3] worked out at 4.6 µM; against Cholinesterase, 656 µM.
